Laboratory results from patent US20220317138A1, “METHODS FOR DETERMINING THE CONCENTRATION OF A CARBAPENEM ANTIBIOTIC IN A BIOLOGICAL SAMPLE” (priority 2019, published 2022).
Read-outs that look alike come from different tables or passages of the source. Numbered stars: 1 amine (or outer) side, 2 acyl side, 3 side chain; on linkers, the order of the positions; unused ones are H or OH. Bridge positions count the residues as written; N and C are the ends. Square brackets hold non-standard residues; d marks the D form. Peptide text beside a SMILES is read from it. * marks the point of attachment. pTerphenylCO(4''-OnC5H11) = CCCCCOc1ccc(-c2ccc(-c3ccc(C(=O)*)cc3)cc2)cc1; Orn(4R-OH,5R-OH) = O=C([C@H](C[C@@H](O)[C@@H](O)N[*:3])N[*:1])[*:2]; hTyr(3S-OH,4S-OH) = N[C@H](C(=O)O)[C@H](O)[C@@H](O)c1ccc(O)cc1; Pro(3S-OH,4S-Me) = C[C@H]1CN[C@H](C(=O)O)[C@H]1O; Hyp = O=C(O)[C@@H]1C[C@@H](O)CN1

Biological target: beta-lactamase class D OXA-48 (Klebsiella pneumoniae, UniProt Q6XEC0)
Assay type: biochemical
Settings: for Average [meropenem]: average of three replicates
[1] = second drug alone in ultrafiltrated serum at 10 times recommended blood concentration, result expressed as meropenem concentration, theoretically zero
[2] = second drug alone in ultrafiltrated serum at 10 times recommended blood concentration, result expressed as meropenem concentration, theoretically zero, replicate 1
[3] = second drug alone in ultrafiltrated serum at 10 times recommended blood concentration, result expressed as meropenem concentration, theoretically zero, replicate 2
[4] = second drug alone in ultrafiltrated serum at 10 times recommended blood concentration, result expressed as meropenem concentration, theoretically zero, replicate 3
[5] = second drug alone in ultrafiltrated serum at 10 times recommended blood concentration, […]

Compound	Average [meropenem] [1]	[meropenem] (mg/L) Replicates 1 [2]	[meropenem] (mg/L) Replicates 2 [3]	[meropenem] (mg/L) Replicates 3 [4]	[meropenem] (mg/L) Replicates 1	[meropenem] (mg/L) Replicates 2	[meropenem] (mg/L) Replicates 3	Average [meropenem] [5]	interference with the method
Cc1[nH]c(=O)c(C#N)cc1-c1ccncc1 [Milrinone]	0.09 mg/L	0.14 mg/L	0.06 mg/L	0.06 mg/L	–	–	–	–	–
O=C1CN=C(c2ccccc2Cl)c2cc([N+](=O)[O-])ccc2N1 [Clonazepam]	0.05 mg/L	0.06 mg/L	0.06 mg/L	0.01 mg/L	–	–	–	–	–
NS(=O)(=O)c1cc(C(=O)O)c(NCc2ccco2)cc1Cl [Lasix]	-0.12 mg/L	-0.13 mg/L	-0.15 mg/L	-0.09 mg/L	–	–	–	–	–
COC(=O)C1=C(C)NC(C)=C(C(=O)OCCN(C)Cc2ccccc2)C1c1cccc([N+](=O)[O-])c1 (stereo not drawn) [Rydene]	0.04 mg/L	0.06 mg/L	0.00 mg/L	0.06 mg/L	–	–	–	–	–
CNCC(O)c1ccc(O)c(O)c1 (stereo not drawn) [Adrenaline]	-0.10 mg/L	0.06 mg/L	-0.37 mg/L	0.00 mg/L	–	–	–	–	–
CCCCc1oc2ccccc2c1C(=O)c1cc(I)c(OCCN(CC)CC)c(I)c1 [Cordarone]	-0.16 mg/L	-0.16 mg/L	-0.15 mg/L	-0.18 mg/L	–	–	–	–	–
NC[C@H](O)c1ccc(O)c(O)c1 [Noradrenaline]	-0.11 mg/L	-0.12 mg/L	-0.12 mg/L	-0.08 mg/L	–	–	–	–	–
OC(Cn1cncn1)(Cn1cncn1)c1ccc(F)cc1F [Fluconazole]	0.07 mg/L	0.02 mg/L	0.10 mg/L	0.11 mg/L	–	–	–	–	–
COc1ccc(C[C@@H]2c3cc(OC)c(OC)cc3CC[N@+]2(C)CCC(=O)OCCCCCOC(=O)CC[N@@+]2(C)CCc3cc(OC)c(OC)cc3[C@H]2Cc2ccc(OC)c(OC)c2)cc1OC [Nimbex]	-0.03 mg/L	0.01 mg/L	-0.04 mg/L	-0.08 mg/L	–	–	–	–	–
CC[C@@H](C(N)=O)N1CCCC1=O [Keppra]	-0.07 mg/L	-0.07 mg/L	-0.07 mg/L	-0.06 mg/L	–	–	–	–	–
C[C@H]1C[C@@H]2[C@H]([C@@H](O)C[C@@]3(C)[C@H]2CC[C@]3(O)C(=O)COC(=O)CCC(=O)O)[C@@]2(C)C=CC(=O)C=C12 [Solu-Medrol]	0.01 mg/L	-0.01 mg/L	0.02 mg/L	0.01 mg/L	–	–	–	–	–
NCCc1ccc(O)c(O)c1 [Dopamine]	-0.06 mg/L	-0.05 mg/L	-0.06 mg/L	-0.07 mg/L	–	–	–	–	–
COc1ccnc(C[S+]([O-])c2nc3cc(OC(F)F)ccc3[nH]2)c1OC (stereo not drawn) [Pantomed]	–	–	–	–	0.02 mg/L	0.01 mg/L	-0.05 mg/L	-0.01 mg/L	–
CC[C@H](C)C[C@H](C)CCCCCCCCC(=O)N[C@H]1C[C@@H](O)[C@@H](NCCN)NC(=O)[C@@H]2[C@@H](O)CCN2C(=O)[C@H]([C@H](O)CCN)NC(=O)[C@H]([C@H](O)[C@@H](O)c2ccc(O)cc2)NC(=O)[C@@H]2C[C@@H](O)CN2C(=O)[C@H]([C@@H](C)O)NC1=O [Caspofungin]	–	–	–	–	0.03 mg/L	0.06 mg/L	0.07 mg/L	0.05 mg/L	–
C[C@@H](c1ncncc1F)[C@](O)(Cn1cncn1)c1ccc(F)cc1F [Voriconazole]	0.01 mg/L	0.00 mg/L	-0.06 mg/L	0.10 mg/L	–	–	–	–	–
CCC1(CC)C(=O)NC(=S)NC1=O [Thiobarbital]	0.10 mg/L	0.12 mg/L	0.11 mg/L	0.09 mg/L	–	–	–	–	–
CC(C)(C)NCC(O)c1ccc(O)c(CO)c1 (stereo not drawn) [Salbutamol]	0.09 mg/L	0.16 mg/L	0.07 mg/L	0.05 mg/L	–	–	–	–	–
CC(CCc1ccc(O)cc1)NCCc1ccc(O)c(O)c1 (stereo not drawn) [Dobutrex]	-0.11 mg/L	-0.07 mg/L	-0.11 mg/L	-0.14 mg/L	–	–	–	–	–
[Ca+2].[Cl-].[Cl-] [Calciclo]	–	–	–	–	0.05 mg/L	-0.04 mg/L	-0.09 mg/L	-0.03 mg/L	–
C[C@]12CCC(=O)C=C1CC[C@@H]1[C@@H]2[C@@H](O)C[C@@]2(C)[C@H]1CC[C@]2(O)C(=O)COC(=O)CCC(=O)O [Solu-cortef]	-0.03 mg/L	-0.10 mg/L	0.02 mg/L	0.00 mg/L	–	–	–	–	–
CN1C(=O)CN=C(c2ccccc2)c2cc(Cl)ccc21 [Diazepam]	0.03 mg/L	0.05 mg/L	0.04 mg/L	0.01 mg/L	–	–	–	–	–
Cc1ncc2n1-c1ccc(Cl)cc1C(c1ccccc1F)=NC2 [Midazolam Braun]	–	–	–	–	-0.07 mg/L	-0.09 mg/L	-0.06 mg/L	-0.07 mg/L	–
Actrapid	–	–	–	–	0.04 mg/L	0.04 mg/L	0.06 mg/L	0.05 mg/L	–
CCCC(CCC)C(=O)[O-].[Na+] [Dapakine]	–	–	–	–	-0.10 mg/L	-0.10 mg/L	-0.09 mg/L	-0.09 mg/L	–
O=C1NC(=O)C(c2ccccc2)(c2ccccc2)N1 [Diphantoïne]	–	–	–	–	-0.15 mg/L	-0.11 mg/L	0.02 mg/L	-0.08 mg/L	–
protamine	–	–	–	–	0.64 mg/L	0.69 mg/L	0.72 mg/L	0.68 mg/L	excepted for protamine
C=CC[C@@H]1/C=C(\C)C[C@H](C)C[C@H](OC)[C@H]2O[C@@](O)(C(=O)C(=O)N3CCCC[C@H]3C(=O)O[C@H](/C(C)=C/[C@@H]3CC[C@@H](O)[C@H](OC)C3)[C@H](C)[C@@H](O)CC1=O)[C@H](C)C[C@@H]2OC.O [Prograft]	–	–	–	–	-0.07 mg/L	-0.06 mg/L	-0.02 mg/L	-0.05 mg/L	–
CN1CC[C@]23c4c5ccc(O)c4O[C@H]2[C@@H](O)C=C[C@H]3[C@H]1C5 [Morphine]	-0.13 mg/L	-0.12 mg/L	-0.15 mg/L	-0.10 mg/L	–	–	–	–	–
CCCCCOc1ccc(-c2ccc(-c3ccc(C(=O)N[C@H]4C[C@@H](O)[C@@H](O)NC(=O)[C@@H]5[C@@H](O)[C@@H](C)CN5C(=O)[C@H]([C@@H](C)O)NC(=O)[C@H]([C@H](O)[C@@H](O)c5ccc(O)cc5)NC(=O)[C@@H]5C[C@@H](O)CN5C(=O)[C@H]([C@@H](C)O)NC4=O)cc3)cc2)cc1 [Anidulafungin] ({pTerphenylCO(4''-OnC5H11)}-[Orn(4R-OH,5R-OH)]T[Hyp][hTyr(3S-OH,4S-OH)]T[Pro(3S-OH,4S-Me)]; lactam 1-C)	–	–	–	–	0.09 mg/L	0.06 mg/L	0.14 mg/L	0.10 mg/L	–
